The structures appear in SMILES notation. “And” between values parts separate entries of the source, which are not always exact repeats. Equal values may be shown once. Where a name gives a salt, the structure may show the parent alone. Bounds are passed on as bounds.

The subject of data set [1] is SK-HEP-1 cells. Nature of the data set: Protection of endothelial cells from homocysteine-induced cell death (MTS assay, absorbance at 490 nm; includes comparison of NACCbl, NAC, cyanocobalamin+NAC, free thiols, other cobalamins, folate). The class given is cell-based, Human. As to conditions: for Absorbance at 490 nm (n = 6): replicates Y1-Y6, listed as Hcy. As to the method: The effect of a constant concentration of NACCbl and GSCbl to protect cells against variable concentrations of homocysteine was assessed. […] Cell viability was determined by MTS® assay. Data shown in FIG. 4 are representative of means ±SE of 6 independent samples. FIG. 4 illustrates that NACCbl (▪) and GSCbl (▴) protect endothelial cells from the effect of homocysteine. […] Cell viability was determined by MTS® assay. […] There was a decrease in protection as homocysteine concentration increased, but there was still ˜60% survival at 50 μM homocysteine.
The data was normalized (log 2 and log 10) as shown in FIGS. 16 and 17 and Tables 16 and 17, respectively, below.

Data set [2] relates to SK-HEP-1 cells. Nature of the data set: Protection from apoptosis induced by homocysteine (Caspase-3 activity). The format is cell-based, Human. The conditions noted are these: 30 μM pre-treatment two hours, then 30 μM homocysteine two hours. On the procedure:
Caspase 3 is activated when cells undergo apoptosis. Caspase-3 assay is a standard for apoptosis assay. Homocysteine is a known inducer of apoptosis. Cells were cultured in 96-well plates for 24 hours and then treated with reagents under test conditions. Cytotoxic agents, H2O2 and etoposide were added to negative control wells. The assay was performed according to the manufacturer's protocol, as follows: Cells were re-suspended in 100 μl of clear media and 50 μl of Caspase-3 substrate solution was immediately added to each test well. […] Cell viability was determined by MTS® assay. […] Cell viability was determined by MTS® assay.

The test system of data set [3] is Hsp70. The conditions noted are these: SK-HEP-1; homocysteine 30 μM, folate 30 μM (2 hr), quercitin 15 μM.
Description: (§1) Cells were plated into 6-, 12-, or 24-well cell culture clusters, at 2×10^3, 2×10^5, or 1×10^5 cells per well and incubated until 90% confluent. Treatments were applied as above.
(§2) Following incubation, cells were subjected to mRNA extraction followed by cDNA synthesis for each sample under test. Polymerase chain reaction cDNA templates were prepared for simplex PCR protocol. PCR products were then visualized using a UV Transilluminator and images captured using a Kodak ID gel imaging system. Densitometry and statistical analysis was then performed on each gene expression band image using PSP® v 10.0 running under Windows XP®.
(§3) mRNA extraction was performed using the Quickprep micro mRNA Purification Kit. Following incubation of cells post-treatment, the media was removed from the cells, adherent cells were re-suspended in 0.4 ml extraction buffer and 0.8 ml elution buffer at 65° C. was added.
A reaction mixture was prepared in individual microcentrifuge tubes containing 2 cDNA synthesis beads, 32 μl of the mRNA solution and 1 μl of pd(N)6. This mixture was incubated at 37° C. in a water bath for 60 minutes. After incubation, 27 μl of RNase-free DEPC treated water was added to each tube to make a total volume 60 μl. cDNA samples were prepared in duplicate. Sample 1 was used immediately in RT-PCR protocol.
Microcentrifuge tubes from puReTaq™Ready-To-Go™ PCR Beads containing one PCR bead were labeled for each sample required. Added to the PCR bead were 17 μl of RNase-free DEPC treated water, 1 μl sense primer, 1 μl anti-sense primer and 5 μl of the cDNA solution. RT-PCR conditions were as follows: Hsp70 and β-actin, pre-treatment step, 94° C. for 1 minute, followed by denaturing at 92° C. for 1 minute, annealing at 60° C. for 1 minute and extension at 72° C. for 1 minute. Total cycles, 30, post-treatment was then carried out at 72° C. for 10 minutes. […]
The size of the PCR products was determined by comparison to DNA fragments of a well-defined size; therefore, 5 μl of the DNA Ladder was carefully pipetted into the first well of the gel. […]
Data set [4] deals with Hsp32. The data set is described as follows: Hsp32 gene expression in SK-HEP-1 cells (RT-PCR, densitometry). The conditions noted are these: homocysteine 30 μM, folate 30 μM (2 hr), Sn(IX) protoporphyrin 25 μM, quercitin 15 μM. The format is cell-based, Human.
Description: as §1, §2, §3
A reaction mixture was prepared in individual microcentrifuge tubes containing 2 cDNA synthesis beads, 32 μl of the mRNA solution and 1 μl of pd(N)6. This mixture was incubated at 37° C. in a water bath for 60 minutes. After incubation, 27 μl of RNase-free DEPC treated water was added to each tube to make a total volume 60 μl. cDNA samples were prepared in duplicate. Sample 1 was used immediately in RT-PCR protocol. Sample 2 was prepared for qPCR protocol by the addition of 150 μl of 95% ice-cold ethanol and stored at −20° C.
Microcentrifuge tubes from puReTaq™Ready-To-Go™ PCR Beads containing one PCR bead were labeled for each sample required. Added to the PCR bead were 17 μl of RNase-free DEPC treated water, 1 μl sense primer, 1 μl anti-sense primer and 5 μl of the cDNA solution. RT-PCR conditions were as follows: Hsp70 and β-actin, pre-treatment step, 94° C. for 1 minute, followed by denaturing at 92° C. for 1 minute, annealing at 60° C. for 1 minute and extension at 72° C. for 1 minute. Total cycles, 30, post-treatment was then carried out at 72° C. for 10 minutes. For Hsp32, pre-treatment step, 95° C. for 2 minutes, followed by denaturing at 94° C. for 30 seconds, annealing at 58° C. for 1 minute and extension at 72° C. for 1 minute. Total cycles 45, post treatment was then carried out at 72° C. for 10 minutes. Following RT-PCR, samples were stored at −20° C.
Amplification products were separated on a 1.8% agarose gel (m/v) in TAE buffer. The size of the PCR products was determined by comparison to DNA fragments of a well-defined size; therefore, 5 μl of the DNA Ladder was carefully pipetted into the first well of the gel. Successive 10 μl of each PCR sample was then pipetted into subsequent wells on the agarose gel. The gel was connected to the Power Pack and run at 100V for 30 minutes.
Gels were visualised on a UV Transilluminator. Photographs were stored using a Kodak Digital camera system fitted with a UV filter set connected to a PC. Images were then transferred to the Kodak ID gel imaging system. Densitometry was performed on each gene expression band using PSP™ v10 running under Windows XP®.
Experiments were conducted using Hsp32 and Hsp 70 gene expression as the basis for study. […] (all treatments for 2 hours).
The test system of data set [5] is SK-HEP-1 cells. As to conditions: human, 2 h. On the procedure:
Cell viability was determined by MTS® assay. […] Cell viability was determined by MTS® assay.

In data set [6] the test system is SK-HEP-1 cells. Nature of the data set: NACCbl protection from homocysteine with Hsp32/Hsp70 inhibited by Sn(IX) protoporphyrin, quercitin or siRNA (MTS assay). The format is cell-based, Human. As to conditions: where named, NACCbl 30 μM pre-treatment two hours with/without Sn(IX)PP, quercetin, replicates 1-6, listed as Hcy.
Excerpt: siRNAs for human HO-1 were synthesised in 2′-deprotected, duplexed, desalted and purified form by Dharmacon Research Inc., published sequences from Zhang et al., (Zhang, Shan et al. 2004). Human Hsp70 primers were from proprietary sequences, and all control non-targeting primer sequences were also synthesised by Dharmacon Research Inc.
Transfection was optimised using a standard siControl Tox protocol. All transfection experiments included non-targeted siRNA.
Cells were trypsinized and plated into 12- or 96-well plates at cell density of 2×10^5, then incubated for 24 hours until adherent. Complexed siRNA and transfection agent at 100 nm was added directly to each experimental well. Plates were incubated at 37° C. for 32.5 hours for mRNA gene analysis experiments or 72 hours for protein analysis by Western Blot.
Complexed siRNA and transfection agent was added to each well of either 12- or 96-well plates. Cells were then trypsinized and added directly into each test well at cell density of 2×10^5. Plates were incubated at 37° C. for 32.5 hours for mRNA gene analysis experiments or 72 hours for protein analysis by Western Blot.
Hsp32 was inhibited using either Sn (IX) protoporhyrin or using an siRNA which specifically knocks out Hsp32. Hsp70 was inhibited using quercitin or using an siRNA which specifically knocks out Hsp70. In addition, two methods were used to inhibit both Hsp32 and Hsp70: chemically Sn (IX) protoporphyrin plus quercitin was used; and then, directly, a combination of the siRNA for both genes was used simultaneously.
Data set [7] has as its system SK-HEP-1 cells. The data set is described as follows: Protection of endothelial cells from H2O2-induced cell death (MTS assay). The format is cell-based, Human. The conditions noted are these: 2 hours pre-incubation, then 25 μM H2O2 24 hours. On the procedure:
The effect of increasing concentrations of NACCbl and GSCbl to protect endothelial cells from the effect of H2O2 was assessed. […] Cell viability was determined by MTS® assay. […] Cell viability was determined by MTS® assay. […] Cell viability was determined by MTS® assay.

Data set [8] is described as follows: Decomposition of thiolatocobalamins in PBS at 37° C. monitored by UV/Vis spectrophotometry. The format is physicochemical. As to conditions: decomposition in PBS at 37° C. As to the method: The decomposition of GSCbl, NACCbl, and HcyCbl in PBS at 37° C. was monitored by UV/Vis spectrophotometry.
Data set [9] has as its target T1, methionine synthase (Oryctolagus cuniculus, UniProt G1SXW3).
T1 construct: methionine synthase activity in rabbit spleen extracts; from tissue; host or cells: rabbit spleen extracts
As to conditions: rabbit spleen extracts; cited from earlier work.

The test system of data set [10] is SK-HEP-1 cells. The data set is described as follows: Effect of high concentrations of NACCbl and GSCbl on SK-HEP-1 cells (MTS assay). The class given is cell-based, Human. Also on record: cell viability (MTS), raw readings (FIG. 13): reference not given here. The conditions noted are these: 24 hours; for cell viability (MTS), raw readings (FIG. 13): 3 replicates.

T1 sequence (G1SXW3 1-1218): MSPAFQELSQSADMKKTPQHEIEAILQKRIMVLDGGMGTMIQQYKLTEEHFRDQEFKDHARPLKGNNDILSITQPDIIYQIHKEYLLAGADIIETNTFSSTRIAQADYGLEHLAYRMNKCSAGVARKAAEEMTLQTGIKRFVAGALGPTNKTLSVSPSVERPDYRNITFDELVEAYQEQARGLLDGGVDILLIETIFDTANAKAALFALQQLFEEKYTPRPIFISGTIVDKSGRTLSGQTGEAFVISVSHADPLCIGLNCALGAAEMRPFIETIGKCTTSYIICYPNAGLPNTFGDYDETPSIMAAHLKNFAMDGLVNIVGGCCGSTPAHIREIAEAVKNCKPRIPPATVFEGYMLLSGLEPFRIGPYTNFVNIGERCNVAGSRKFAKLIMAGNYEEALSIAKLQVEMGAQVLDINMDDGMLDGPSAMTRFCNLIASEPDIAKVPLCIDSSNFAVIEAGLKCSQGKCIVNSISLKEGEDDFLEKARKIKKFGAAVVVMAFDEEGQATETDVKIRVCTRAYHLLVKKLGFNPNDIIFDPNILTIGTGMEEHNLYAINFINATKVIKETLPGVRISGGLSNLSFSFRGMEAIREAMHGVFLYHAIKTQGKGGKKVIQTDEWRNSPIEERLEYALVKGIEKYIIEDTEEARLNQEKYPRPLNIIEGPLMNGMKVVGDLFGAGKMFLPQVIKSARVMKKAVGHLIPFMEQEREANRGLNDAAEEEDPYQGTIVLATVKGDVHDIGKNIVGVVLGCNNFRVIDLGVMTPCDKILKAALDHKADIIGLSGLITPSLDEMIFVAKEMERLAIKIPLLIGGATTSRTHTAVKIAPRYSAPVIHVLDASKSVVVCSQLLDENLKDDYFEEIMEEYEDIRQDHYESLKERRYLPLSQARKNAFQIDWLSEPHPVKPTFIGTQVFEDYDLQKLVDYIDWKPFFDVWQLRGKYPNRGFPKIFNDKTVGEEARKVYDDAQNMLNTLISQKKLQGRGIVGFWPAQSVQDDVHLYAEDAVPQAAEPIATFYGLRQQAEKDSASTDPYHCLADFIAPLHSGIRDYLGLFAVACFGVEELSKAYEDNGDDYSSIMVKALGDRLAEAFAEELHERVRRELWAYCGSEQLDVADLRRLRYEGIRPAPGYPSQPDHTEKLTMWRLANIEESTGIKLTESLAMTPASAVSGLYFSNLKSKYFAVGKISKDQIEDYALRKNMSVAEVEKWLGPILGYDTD

As for `CC(=O)N[C@@H](CS)C(=O)O` [NAC, N-Acetyl-L-Cysteine, reference compound], the “Absorbance at 490 nm, Mean (n = 6)” value in data set [1] (Conc. Hcy 3.125 (μM), NACCbl 30 μM, NAC 75 μM) is listed as 1.897.
As for `CN1c2c(nc(N)[nH]c2=O)NC[C@@H]1CNc1ccc(C(=O)N[C@@H](CCC(=O)O)C(=O)O)cc1` [folate, 5-Methyltetrahydrofolic acid disodium salt], in data set [2], the “protection against apoptosis induced by homocysteine” value is on record as “partial protection”. The “effect on Hsp70 gene expression” value in [3] was “increase in expression”. Further, in data set [4], the “effect on Hsp32 gene expression” value is “increase in expression”.
As to `NC(CCS)C(=O)O` (racemic) [Homocysteine, DL-Homocysteine], the “concentration achieving greater than 90% death” value in data set [5] is 25 µM. The “concentration that killed cells (p<0.001)” value in [5] was at least 5 µM. Further, in data set [1] (Conc. Hcy 200.000 (μM), NACCbl 30 μM, NAC 75 μM), the “Absorbance at 490 nm, Mean (n = 6)” value came out at 0.360. The “normalized cell viability (MTS), percent, mean of 6” value in [1] (Conc. Hcy 200.000, NACCbl 30 μM, NAC 75 μM) is listed as −0.033. Also, the “Absorbance at 490 nm (n = 6)” value in data set [1] (Conc. of Hcy 25.000, NACCbl 30 μM, NAC 75 μM) is 0.740; in [1] (Conc. of Hcy 50.000, NACCbl 30 μM, NAC 75 μM) it was 0.770; in data set [1] (Conc. of Hcy 100.000, NACCbl 30 μM, NAC 75 μM), 0.510; in data set [1] (Conc. of Hcy 200.000, NACCbl 30 μM, NAC 75 μM), 0.330 and 0.390. The “cell viability (MTS), raw readings (FIG. 11)” value in data set [6] (Hcy 25 (μM) two hours) is 0.74; in data set [6] (Hcy 50 (μM) two hours), 0.77; in [6] (Hcy 100 (μM) two hours), 0.51; in [6] (Hcy 200 (μM) two hours), 0.33 and 0.39. Further, the “effect on Hsp70 gene expression” value in data set [3] is on record as “increase in expression”. In addition, the “effect on Hsp32 gene expression” value in data set [4] was “increase in expression”.
Turning to `C/C1=C2N=C(/C=C3N=C(/C(C)=C4\[N-]C(C(CC(N)=O)C4(C)CCC(=O)NCC(C)OP(=O)([O-])OC4C(CO)OC(n5cnc6cc(C)c(C)cc65)C4O)C4(C)N=C1C(CCC(N)=O)C4(C)CC(N)=O)C(CCC(N)=O)C\3(C)C)C(CCC(N)=O)C/2(C)CC(N)=O.NC(CCC(=O)NC(C[S-])C(=O)NCC(=O)O)C(=O)O.[Co+3]` (stereo not drawn) [GSCbl, Glutathionylcobalamin, reference compound], in data set [2], the “protection against apoptosis induced by homocysteine” value is listed as “total protection”. The “concentration required to achieve >80% survival” value in data set [7] came out at 100 µM. Further, in [8], the t1/2 result was “No decomposition within 20 hours”. Also, the survival in [1] (30 μM cobalamin pre-incubation two hours, then 50 μM homocysteine two hours) is given as about 60%. Also, in data set [1] (2 hours pre-incubation, then 30 μM homocysteine 24 hours), the “concentration required for >80% survival protection” value turned out to be 50 µM. For the same molecule, the “protection against homocysteine-induced damage compared with free thiols” value in data set [1] (Hcy 30 μM, NAC 45, GSH 100, NACCbl 12.5, GSCbl 15 μM, with or without folate 25 μM) is reported as “superior to the free thiols”. Moreover, in data set [9], the “promotion of methionine synthase activity” value is on record as “more active than other cobalamins in promoting methionine synthase activity”. Also, in data set [10] (above 0.2 mM concentration), the “cell death compared with NACCbl” value is reported as “caused greater cell death than NACCbl”. The “cell viability (MTS), raw readings (FIG. 13)” value (shortened to “cell viability … (FIG. 13)”) in data set [10] (compound conc. 0.61 (μM scale)) was 2.554 and 2.376 and 2.53; in [10] (compound conc. 1.22 (μM scale)) it was 2.347 and 2.433 and 2.503; in [10] (compound conc. 2.441 (μM scale)), 2.527 and 2.434 and 2.46; in data set [10] (compound conc. 4.882 (μM scale)), 2.543 and 2.528 and 2.519; in data set [10] (compound conc. 9.765 (μM scale)), 2.532 and 2.476 and 2.42; in [10] (compound conc. 19.531 (μM scale)), 2.553 and 2.476 and 2.42. For the same molecule, the “cell viability … (FIG. 13)” value was 2.492 and 2.484 and 2.468 in data set [10] (compound conc. 39.062 (μM scale)); 2.444 and 2.406 and 2.402 in data set [10] (compound conc. 78.125 (μM scale)); 2.407 and 2.37 and 2.318 in [10] (compound conc. 156.25 (μM scale)); 2.306 and 2.204 and 2.138 in [10] (compound conc. 312.5 (μM scale)); 2.197 and 1.912 and 1.787 in data set [10] (compound conc. 625 (μM scale)); 1.973 and 1.846 and 1.71 in [10] (compound conc. 1250 (μM scale)). Moreover, the “cell viability … (FIG. 13)” value in data set [10] (compound conc. 2500 (μM scale)) was 1.775 and 1.81 and 1.896; in data set [10] (compound conc. 5000 (μM scale)), 1.728 and 1.67 and 1.623; in data set [10] (compound conc. 10000 (= 10 mM)) it was 1.322 and 1.342 and 1.366. Further, the “effect on Hsp32 gene expression” value in data set [4] is “induce Hsp32”.
On to `C=CC1=C(C)c2cc3[n-]c(cc4[n-]c(cc5nc(cc1n2)C(C)=C5C=C)c(C)c4CCC(=O)O)c(CCC(=O)O)c3C.[Cl-].[Cl-].[Sn+4]` [Sn (IX) protoporphyrin, 8,13-Bis(vinyl)-3,7,12,17-tetramethyl-21H,23H-porphine-2,18dipropionic acid tin(IV) dichloride], for which the “effect on Hsp32 gene expression” value in data set [4] was “inhibited”.
Consider `OO` [H2O2, Hydrogen peroxide], for which, in data set [5], the “concentration achieving greater than 90% death” value came out at 12.5 µM and the “concentration sufficient to kill cultured endothelial cells (P<0.001)” value is on record as at least 3 μm.
As to `O.O.O=c1c(O)c(-c2ccc(O)c(O)c2)oc2cc(O)cc(O)c12` [Quercitin, 2-(3,4-Dihydroxyphenyl)-3,5,7-trihydroxy-4H-1-benzopyran-4-one dihydrate], the “effect on Hsp70 gene expression” value in data set [3] was “inhibits Hsp70 gene expression”. The “effect on Hsp32 gene expression” value in data set [4] was “does not inhibit Hsp32 gene expression”.
Take `CC1=C2N=C(C=C3N=C(C(C)=C4[N-]C(C(CC(N)=O)C4(C)CCC(=O)NCC(C)OP(=O)([O-])OC4C(CO)OC(n5cnc6cc(C)c(C)cc65)C4O)C4(C)N=C1C(CCC(N)=O)C4(C)CC(N)=O)C(CCC(N)=O)C3(C)C)C(CCC(N)=O)C2(C)CC(N)=O.NC(CC[S-])C(=O)O.[Co+3]` [HcyCbl, D,L-homocysteinyl-cobalamin]: the t1/2 in data set [8] stood at 6.6 h.

The record behind these values is US7812042B2, “Pharmaceutical compositions and therapeutic applications for the use of a novel vitamin B12 derivative, N-acetyl-L-cysteinylcobalamin” (priority 2006, dated 2010).
